In patent publication US20090069417A1, “CAROTENOID OXIDATION PRODUCTS AS CHEMOPREVENTIVE AND CHEMOTHERAPEUTIC AGENTS” (priority 2005, published 2009):

Key:
[1] = test system: antioxidant response element (ARE); assay: ARE reporter gene (luciferase) assay, transient transfection; type: cell-based, human; conditions: FIG. 1, mean of 3-6 experiments, expressed as ratio to stimulation obtained with tBHQ, compared in words
Source text: ARE reporter constructs were provided by Dr. J. J. Gipp (University of Wisconsin Medical School, Madison, Wis.; Ref 18). NQO1hARE-tk-luc and GCShARE4-tk-luc contain sequences of the active response elements from the promoters of human NQO1 and GCS heavy subunit, respectively. GCShARE4m-tk-luc, a non-active mutant form of the latter construct, contains a single base mutation in the relevant sequence.
Cell transfection and reporter gene assays were generally carried out as follows. Some variations may be adopted for different cell lines: Cells were transfected using TFx-50 reagent (Promega, Madison, Wis.) with ca. 0.07 μg of DNA containing 0.05 μg of reporter plasmid and 0.02 μg of Renilla luciferase expression vector (P-RL-null vector, Promega) as an internal standard. For this purpose, cells were seeded in 24-well plates (100,000 cells per well). After 1 day, cells were rinsed twice with the appropriate culture medium without serum, followed by the addition of 0.2 mL of medium containing DNA and TFx-50 reagent at a charge ratio of 1:3. The cells were then incubated for 30 minutes at 37° C. in 95% air/5% CO2. Four hundred microliters of medium containing 3% charcoal-stripped delipidated FCS were added and incubation continued for 8 hours. This was then replaced by medium supplemented with 3% delipidated FCS and the test compounds and cells were incubated for another 16 hours. Cell extracts were prepared for luciferase reporter assay (Dual Luciferase Reporter Assay System, Promega) according to the manufacturer's instructions.
The effects of lycopene and several lycopene derivatives on antioxidant response element (ARE) induction were tested in all of the cancer cell lines mentioned above. The assay employed measures the transcriptional activity of the antioxidant response element which is activated by the Nrf2 transcription factor, and its activation by carotenoids and their derivatives. Parts of a promoter of the genes of interest were fused to a luciferase reporter gene as described in Materials and Methods. The constructs were transfected into the cells. Cells were incubated with carotenoids or derivatives and activation of transcription was measured.
The results are depicted in FIG. 1 as the mean of 3-6 experiments. The standard errors of the mean (SEs) (not shown) were not higher than 10% of the mean. In order to decrease the variation between experiments, the results are expressed as the ratio of stimulation obtained with each specific derivative to that obtained with tBHQ (a well known positive control in this system).

MCF-7 and T47D cells = assay: Cell proliferation, [3H]thymidine incorporation, mammary cancer cells (FIG. 2B); type: cell-based, human; conditions: compared with lycopene
Description: MCF-7, human mammary cancer cells were purchased from American Type Culture Collection (Rockwell, Md.). MCF-7 cells were grown in DMEM containing penicillin (100 units/mL), streptomycin (0.1 mg/mL), nystatin (12.5 Ag/mL), 0.6 μg/mL insulin, and 10% FCS. T47D, human mammary cancer cell line, were provided by Dr. Yafa Keidar (Tel-Aviv University, Israel) and were grown in DMEM medium. LNCaP human prostate cancer cells were purchased from American Type Culture Collection (Rockwell, Md.) and were grown on RPMI medium. The medium contained penicillin (100 U/ml), streptomycin (0.1 mg/ml) nystatin (12.5 μg/ml), and 10% fetal calf serum (FCS), and 6 μg/ml insulin. Prior to each experiment, the cells were depleted of steroid hormones and maintained for 3-5 days in phenol red-free DMEM supplemented with 10% DCC FCS.
MCF-7, LNCaP and T47D cells were seeded in 96-well plates. After one day, the medium was replaced with one containing the various materials. In each day of the experiment one plate was used for the thymidine incorporation assay. Thymidine incorporation was determined as follows: 2.5 μCi/well of [^3H]thymidine (specific radioactivity 5 mCi/mmol) containing cold thymidine (100 μM) was added and the plate were incubated (37° C.) for 1 hr (MCF-7 cells) or for 3 hr (LNCaP, T47D cells). […] Radioactivity was determined by a radioactive image analyzer (BAS 1000, Fuji, Japan). […]

[2] = test system: antioxidant response element (ARE) in MCF-7 and T47D cells; assay: ARE induction in human breast cancer cell lines (FIG. 2A); type: cell-based; conditions: compared with lycopene
Description: Cell transfection and reporter gene assays were generally carried out as follows. Some variations may be adopted for different cell lines: Cells were transfected using TFx-50 reagent (Promega, Madison, Wis.) with ca. 0.07 μg of DNA containing 0.05 μg of reporter plasmid and 0.02 μg of Renilla luciferase expression vector (P-RL-null vector, Promega) as an internal standard. For this purpose, cells were seeded in 24-well plates (100,000 cells per well). After 1 day, cells were rinsed twice with the appropriate culture medium without serum, followed by the addition of 0.2 mL of medium containing DNA and TFx-50 reagent at a charge ratio of 1:3. The cells were then incubated for 30 minutes at 37° C. in 95% air/5% CO2. Four hundred microliters of medium containing 3% charcoal-stripped delipidated FCS were added and incubation continued for 8 hours. This was then replaced by medium supplemented with 3% delipidated FCS and the test compounds and cells were incubated for another 16 hours. Cell extracts were prepared for luciferase reporter assay (Dual Luciferase Reporter Assay System, Promega) according to the manufacturer's instructions. […]

[3] = test system: mammary, endometrial, lung and leukemic cancer cell growth; conditions: lung and leukemic cancer cells, dose-dependent, read-out: IC50, inhibition of cancer cell growth; cited from earlier work
[4] = test system: reporter genes fused with ARE sequences; conditions: transiently transfected cancer cells; cited from earlier work
[5] = test system: HL-60 human promyelocytic leukemia cells; conditions: HL-60 cells; cited from earlier work
[6] = test system: WB-F344 rat liver epithelial cells; conditions: cited from earlier work

diapo-8′,15-lycopendial
stimulation of transcription of ARE reporter genes [1]: more active than the parent molecule lycopene | stimulation of transcription of ARE reporter genes ([1]; listed as 8′15): also active

C\C(C=O)=C/C=C/C(C)=C/C=C/C=C(C)/C=C/C=C(\C)C=O [8,8′, diapo-8,8′-lycopendial]
inhibition of cell proliferation (MCF-7 and T47D cells): less active | stimulation of transcription of ARE reporter genes [1]: much less active | ARE induction [2]: less active

C\C(C=O)=C/C=C/C=C(\C)C=O [12,12′, diapo-12,12′-lycopendial]
stimulation of transcription of ARE reporter genes [1]: much less active

CC(C)=CCC/C(C)=C/C=C/C(C)=C/C=C/C(C)=C/C=C/C=C(C)/C=C/C=C(C)/C=C/C=C(\C)CCC=C(C)C [lycopene, Lycopene]
IC50 [3]: ~2 µM | transactivation of ARE reporter genes [4]: capable of transactivating the expression of reporter genes fused with ARE sequences

C\C(C=O)=C/C=C/C=C(C)/C=C/C=C(\C)C=O [8′,12, diapo-8′,12-lycopendial]
stimulation of transcription of ARE reporter genes [1]: more active than the parent molecule lycopene | stimulation of transcription of ARE reporter genes ([1]; listed as 8′12): most active

CC(/C=C/C=O)=C\C=C\C=C(C)\C=C\C=O [10,10′, diapo-10,10′-lycopendial]
inhibition of cell proliferation (MCF-7 and T47D cells): more active than lycopene | stimulation of transcription of ARE reporter genes [1]: more active than the parent molecule lycopene | stimulation of transcription of ARE reporter genes ([1]; listed as 10′10): most active | ARE induction [2]: more active than lycopene

CC(=O)/C=C/C=C(C)/C=C/C=O [(E,E,E)-4-methyl-8-oxo-2,4,6-nonatrienal]
induction of apoptosis [5]: induces apoptosis

C\C(C=O)=C/C=C/C=C(C)/C=C/C=C(C)/C=C/C=O [2,7,11-trimethyl-tetradecahexaene-1,14-dial]
stimulation of gap junctional communication (GJC) [6]: stimulates gap junctional communication
